Assay results reported in paper PMC8205227 (ACS Infectious Diseases, 2021).
In brackets after ≈: the same amount, converted by molar mass. Several values for one entry are separate records, joined by “and”; a condition that tells them apart may be missing. Identical values can stand only once. Entries after “also recorded” stand apart in the source; their conditions may differ. Like-named read-outs stand apart in the source and are kept apart here.

Legend:
Mtb CoaB = Mtb CoaB (Mycobacterium tuberculosis, UniProt P9WNZ1); assay: BIOMOL Green end-point pyrophosphate quantification assay (high-throughput screen); assay type: biochemical
Sequence of Mtb CoaB (P9WNZ1 whole entry): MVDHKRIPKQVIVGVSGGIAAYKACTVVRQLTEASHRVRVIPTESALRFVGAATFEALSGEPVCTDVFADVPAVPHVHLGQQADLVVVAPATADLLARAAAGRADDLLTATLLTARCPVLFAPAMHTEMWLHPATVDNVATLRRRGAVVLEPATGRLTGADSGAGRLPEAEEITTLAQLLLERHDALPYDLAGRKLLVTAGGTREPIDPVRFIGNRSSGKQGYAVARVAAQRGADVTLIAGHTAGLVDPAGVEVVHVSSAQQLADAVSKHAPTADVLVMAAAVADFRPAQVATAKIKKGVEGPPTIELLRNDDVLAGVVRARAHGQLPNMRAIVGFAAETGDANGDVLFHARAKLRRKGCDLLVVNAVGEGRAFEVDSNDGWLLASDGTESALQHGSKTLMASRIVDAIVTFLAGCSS

Mtb H37RvMA [1] = assay: microbe, parasite or virus in culture; assay type: cell-based, Mycobacterium tuberculosis
HepG2 cells = assay: HepG2 cytotoxicity; assay type: cell-based; details: Homo sapiens
Source text: (§1) Compounds were profiled for HepG2 cytotoxicity, mouse liver microsomal clearance, and aqueous solubility, as previously described.[66]

[2] = assay type: in vitro ADME, mouse; details: microsomes
Source text: as §1

physchem [3] = assay type: physicochemical; details: kinetic from dmso stock
Source text: as §1

physchem [4] = assay type: physicochemical
Source text: Table 1 SAR and In Vitro Profiling of Modifications to Compound 1a ^a | column: CHI LogD

pyrophosphatase = assay: Counter-screen for false positives (pyrophosphatase inactivation); assay type: biochemical
Description: Counter-screens carried out to exclude false positive compounds were performed in 50 μL reactions containing 0.5 U/mL pyrophosphatase and 2 μM pyrophosphate in 100 mM Tris-HCl, pH 7.6, buffer containing 1 mM MgCl2 and 1 mM TCEP for 2 h at room temperature in 384-well microplates (Greiner Bio-One). Control reactions were performed in the absence of the pyrophosphatase. The reactions were terminated by addition of 50 μL BIOMOL Green (Enzo Life Sciences), and product formation was measured by absorbance (650 nm) using a PHERAstar microplate reader (BMG Labtech) following incubation for 20 min. Liquid dispensing was performed using a Thermo Scientific Matrix Wellmate, and data were processed and analyzed using ActivityBase (IDBS).

M. tuberculosis CoaBC = M. tuberculosis CoaBC (Mycobacterium tuberculosis, UniProt P9WNZ1); assay type: binding
Sequence of M. tuberculosis CoaBC (P9WNZ1 whole entry): as above

coaBC Tet-OFF hypomorph = assay: microbe, parasite or virus in culture; assay type: cell-based, Mycobacterium tuberculosis; details: for MIC: read-out: MIC in the presence of PantS; for Effect of ATc-mediated coaBC silencing on susceptibility of the coaBC hypomorph (hypersensitization): increasing ATc, inhibitor up to 125 μM
[5] = system: coupled reporter enzymes (inorganic pyrophosphatase, purine nucleoside phosphorylase); assay: Inhibition of the coupled reporter enzymes of the EnzChek assay; assay type: biochemical; details: at 100 μM
human CoaB = human CoaB (Homo sapiens, UniProt Q9HAB8); assay: EnzChek coupled enzyme pyrophosphate assay, human CoaB; assay type: biochemical; details: 1 μM human CoaB; read-out: IC50 against human CoaB (EnzChek assay)
Sequence of human CoaB (Q9HAB8 whole entry): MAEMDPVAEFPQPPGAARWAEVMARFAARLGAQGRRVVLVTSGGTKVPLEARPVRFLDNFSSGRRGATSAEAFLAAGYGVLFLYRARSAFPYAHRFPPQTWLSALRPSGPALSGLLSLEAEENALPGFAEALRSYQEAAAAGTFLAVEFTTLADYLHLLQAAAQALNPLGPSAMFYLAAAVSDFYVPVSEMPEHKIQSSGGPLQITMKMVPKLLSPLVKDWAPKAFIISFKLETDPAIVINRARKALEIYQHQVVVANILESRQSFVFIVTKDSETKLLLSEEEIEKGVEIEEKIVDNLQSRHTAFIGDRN

Mtb CoaBC [6] = biological target: T1, Mtb CoaBC (Mycobacterium tuberculosis, UniProt P9WNZ1); assay: CMP quantification assay for L-cysteine kinetics and competition; assay type: biochemical
T1 sequence (P9WNZ1 whole entry): as the sequence (P9WNZ1 whole entry) above

wild-type Mtb H37RvMA = assay: LC-MS metabolomic profiling of Mtb after compound exposure; assay type: cell-based, Mycobacterium tuberculosis; details: 5 μM or 50 μM, 24 h
Mtb CoaBC [7] = biological target: T1, Mtb CoaBC
Mtb CoaBC [8] = biological target: T1, Mtb CoaBC; assay: biochemical
coaBC hypomorph = assay type: cell-based, Mycobacterium tuberculosis; details: ATc 200 ng/mL; pantothenate 25 µg/mL
panC Tet-OFF hypomorph = assay type: cell-based, Mycobacterium tuberculosis; details: pantothenate 25 µg/mL
[9] = system: CC(C)(COP(=O)(O)O)[C@@H](O)C(=O)NCCC(=O)O; assay: purified protein, by the assay type; details: other: other substrates fixed (125 μM CTP or PPA, 500 μM L-cysteine); pH 7.5
[10] = system: Nc1ccn([C@@H]2O[C@H](COP(=O)(O)OP(=O)(O)OP(=O)(O)O)[C@@H](O)[C@H]2O)c(=O)n1; assay: purified protein, by the assay type; details: other: other substrates fixed (125 μM CTP or PPA, 500 μM L-cysteine); pH 7.5
Mtb H37RvMA [11] = system: Mtb H37RvMA; parameters: method as in PMID 33420031; details: cited from earlier work
CoaB = system: CoaB; parameters: method as in PMID 33420031; details: allosteric CoaB inhibitor; cited from earlier work
Mtb CoaE = system: Mtb CoaE; parameters: method as in PMID 21731728; details: 100 μM CTP; cited from earlier work
[12] = BIOMOL Green pyrophosphate quantification assay
[13] = Mycobacterium tuberculosis, H37RV, read-out: Mtb H37Rv MIC

Cc1nn(-c2ccccc2)c(O)c1Sc1ccccc1 [Compound 1a, 4-Phenylsulfanyl-5-methyl-2-phenyl-pyrazol-3-ol]
IC50 (Mtb CoaB; [12]): 9.9 µM
MIC (Mtb H37RvMA [1]; [13]): > 125 µM
MIC (Mtb H37RvMA [1]; read-out: Mtb H37Rv MIC): >125 µM
IC50 (HepG2 cells): > 50 µM
Mouse Cli (intrinsic clearance) ([2]; mouse): <0.5 mL/min/g
solubility kinetic (physchem [3]): 219 µM (≈ 61.8 µg/mL)
chromatographic logD (physchem [4]): 0.4
Activity in counter-screen for pyrophosphatase inactivation (pyrophosphatase): inactivity

Nc1ccn([C@@H]2O[C@H](COP(=O)(O)O)[C@@H](O)[C@H]2O)c(=O)n1 [CMP, cytidine-5′-monophosphate]
Thermal shift relative to CoaBC, Substrate (M. tuberculosis CoaBC): 1.5 °C

CC(C)(COP(=O)(O)O)[C@@H](O)C(=O)NCCC(=O)O [PPA, 4′-phosphopantothenate]
Thermal shift relative to CoaBC, Substrate (M. tuberculosis CoaBC): 3.5 °C

Cc1ccc(Sc2c(C)nn(-c3ccccc3)c2O)cc1 [Compound 1b, 4-(4-Methylphenyl)sulfanyl-5-methyl-2-phenyl-pyrazol-3-ol]
IC50 (Mtb CoaB; [12]): 3.3 µM
MIC (Mtb H37RvMA [1]; [13]): > 125 µM
IC50 (HepG2 cells): > 50 µM
Mouse Cli (intrinsic clearance) ([2]; mouse): 1.1 mL/min/g
solubility kinetic (physchem [3]): 156 µM (≈ 46.2 µg/mL)
chromatographic logD (physchem [4]): 0.7

Cc1nn(-c2ccccc2)c(O)c1Sc1ccc(Cl)cc1 [Compound 1c, 4-(4-Chlorophenyl)sulfanyl-5-methyl-2-phenyl-pyrazol-3-ol]
IC50 (Mtb CoaB; [12]): 4 µM
MIC (Mtb H37RvMA [1]; [13]): > 125 µM
IC50 (HepG2 cells): > 50 µM
Mouse Cli (intrinsic clearance) ([2]; mouse): 2.2 mL/min/g
solubility kinetic (physchem [3]): 110 µM (≈ 34.8 µg/mL)
chromatographic logD (physchem [4]): 0.7

Cc1nn(-c2ccccc2)c(O)c1Sc1nc2cc(Cl)ccc2o1 [Compound 1f, 4-(5-Chloro-1,3-benzoxazol-2-yl)sulfanyl-5-methyl-2-phenyl-pyrazol-3-ol]
IC50 (Mtb CoaB; [12]): 15.6 µM
Effect of ATc on activity against wild-type Mtb H37RvMA (Mtb H37RvMA [1]): no effect
Rescue from compound toxicity by PantS supplementation (Mtb H37RvMA [1]): rescued the wild-type strain
MIC (Mtb H37RvMA [1]; [13]): 25.9 µM (≈ 9.27 µg/mL)
MIC (Mtb H37RvMA [1]; Mycobacterium tuberculosis, H37RVMA, read-out: MIC in the presence of PantS): 83.3 µM
MIC (Mtb H37RvMA [1]; read-out: MIC in the presence of PantS): > 125 µM
IC50 (HepG2 cells): > 50 µM
Mouse Cli (intrinsic clearance) ([2]; mouse): 2.3 mL/min/g
solubility kinetic (physchem [3]): 219 µM (≈ 78.4 µg/mL)
chromatographic logD (physchem [4]): 0.8
MIC (coaBC Tet-OFF hypomorph; Mycobacterium tuberculosis): 77.2 µM
Fold decrease in MIC against coaBC hypomorph (coaBC Tet-OFF hypomorph; in the presence of 12.5 ng/mL ATc): ~7 fold
Effect of ATc-mediated coaBC silencing on susceptibility of the coaBC hypomorph (hypersensitization) (coaBC Tet-OFF hypomorph): dose-dependent hypersensitization
Fold reduction in susceptibility of coaBC hypomorph on PantS supplementation (coaBC Tet-OFF hypomorph; pantethine 2.5 mg/mL): 4 fold
MIC (coaBC Tet-OFF hypomorph): > 125 µM
Activity on the coupled reporter enzymes [5]: inactive
IC50 (human CoaB): 23.4 µM
Mode of inhibition with respect to L-cysteine (Mtb CoaBC [6]): noncompetitive inhibition
Ki (Mtb CoaBC [6]; varying L-cysteine): 22.7 ± 7.6 µM
ΔTm (difference in melting temperature in the presence and absence of 1f) (M. tuberculosis CoaBC): 0 °C and 1 °C
Change in abundance of CoA thioesters propionyl-CoA, succinyl-CoA and malonyl-CoA relative to untreated bacilli (wild-type Mtb H37RvMA): notable depletion
Change in abundance of dephospho-CoA relative to untreated bacilli (wild-type Mtb H37RvMA): substantial accumulation
Change in the level of CoA (wild-type Mtb H37RvMA): no detectable change
Mode of inhibition with respect to CTP (Mtb CoaBC [7]): noncompetitive inhibition
Mode of inhibition with respect to PPA (Mtb CoaBC [7]): uncompetitively; also recorded: uncompetitive inhibition
αKi, uncompetitive inhibition for PPA (Mtb CoaBC [7]; varying PPA): 19.0 ± 0.6 µM
IC50 (Mtb CoaBC [8]): 24.3 µM
Ki (Mtb CoaBC [8]): 10.1 ± 1.4 µM

Cc1nn(-c2ccc(Cl)cn2)c(O)c1Sc1ccc(Cl)cc1 [Compound 1i]
IC50 (Mtb CoaB; [12]): > 50 µM
Mtb CoaB IC50 (Mtb CoaB; [12]): complete loss of inhibitory activity
MIC (Mtb H37RvMA [1]; [13]): 6.2 µM (≈ 2.18 µg/mL)
IC50 (HepG2 cells): 40 µM
Mouse Cli (intrinsic clearance) ([2]; CD1, mouse): <0.5 mL/min/g
solubility kinetic (physchem [3]): 79 µM (≈ 27.8 µg/mL)
chromatographic logD (physchem [4]): 3.7
Effect of ATc-mediated coaBC silencing on susceptibility of the coaBC hypomorph (hypersensitization) (coaBC Tet-OFF hypomorph): lack of hypersensitization

Cc1nn(-c2ccc(Cl)cc2)c(O)c1Sc1ccc(Cl)cc1 [Compound 1g, 2-(4-Chlorophenyl)-4-(4-chlorophenyl)sulfanyl-5-methyl-pyrazol-3-ol]
IC50 (Mtb CoaB; [12]): 3.5 µM
MIC (Mtb H37RvMA [1]; [13]): > 125 µM
Mouse Cli (intrinsic clearance) ([2]; mouse): 2.8 mL/min/g
solubility kinetic (physchem [3]): 110 µM (≈ 38.6 µg/mL)
chromatographic logD (physchem [4]): 1.5
Effect of ATc-mediated coaBC silencing on susceptibility of the coaBC hypomorph (hypersensitization) (coaBC Tet-OFF hypomorph): lack of hypersensitization

CC(C)(CO)[C@@H](O)C(=O)NCCC(=O)O [Pan, pantothenate]
Rescue of growth of the coaBC hypomorph (coaBC hypomorph): unable to restore growth
Rescue from growth inhibitory effects of PanC deficiency (panC Tet-OFF hypomorph): fully rescued

Mtb CoaBC (Mycobacterium tuberculosis H37Rv)
Km [9]: 45.4 ± 5.3 µM
Km [10]: 27.4 ± 2.6 µM

O=c1cc(-c2ccc(O)c(O)c2)oc2cc(O)c(O)cc12 [Compound 2b, reference compound]
Change in abundance of CoA thioesters propionyl-CoA, succinyl-CoA and malonyl-CoA relative to untreated bacilli (wild-type Mtb H37RvMA): notable depletion
Change in abundance of dephospho-CoA relative to untreated bacilli (wild-type Mtb H37RvMA): substantial accumulation
Change in the level of CoA (wild-type Mtb H37RvMA): no detectable change
MIC against Mtb (whole-cell activity) (Mtb H37RvMA [11]): > 250 µM
IC50 (CoaB): 0.08 µM

Nc1ccn([C@@H]2O[C@H](COP(=O)(O)OP(=O)(O)OP(=O)(O)O)[C@@H](O)[C@H]2O)c(=O)n1 [CTP, cytidine-5′-triphosphate]
Thermal shift relative to CoaBC, Substrate (M. tuberculosis CoaBC): 5.5 °C
Decrease in CoaE activity (Mtb CoaE): greater than 60%

Cc1nn(-c2cccc(Cl)c2)c(O)c1Sc1ccc(Cl)cc1 [Compound 1h, 2-(3-Chlorophenyl)-4-(4-chlorophenyl)sulfanyl-5-methyl-pyrazol-3-ol]
IC50 (Mtb CoaB; [12]): 2.3 µM
MIC (Mtb H37RvMA [1]; [13]): > 125 µM
Mouse Cli (intrinsic clearance) ([2]; mouse): 2.6 mL/min/g
solubility kinetic (physchem [3]): 55 µM (≈ 19.3 µg/mL)
chromatographic logD (physchem [4]): 1.5
Effect of ATc-mediated coaBC silencing on susceptibility of the coaBC hypomorph (hypersensitization) (coaBC Tet-OFF hypomorph): lack of hypersensitization

N[C@@H](CS)C(=O)O [L-cysteine]
Thermal shift relative to CoaBC, Substrate (M. tuberculosis CoaBC): 0.5 °C

CO[C@H]1/C=C/O[C@@]2(C)Oc3c(C)c(O)c4c(O)c(c(/C=N/N5CCN(C)CC5)c(O)c4c3C2=O)NC(=O)/C(C)=C\C=C\[C@H](C)[C@H](O)[C@@H](C)[C@@H](O)[C@@H](C)[C@H](OC(C)=O)[C@@H]1C [rifampicin, reference compound]
Effect of ATc-mediated coaBC silencing on susceptibility of the coaBC hypomorph (hypersensitization) (coaBC Tet-OFF hypomorph): did not render the coaBC hypomorph more susceptible

Cc1nn(-c2ccccc2)c(O)c1Sc1ccc(Cl)cc1Cl [Compound 1d]
IC50 (Mtb CoaB; [12]): 3.2 µM
MIC (Mtb H37RvMA [1]; [13]): > 125 µM
IC50 (HepG2 cells): > 50 µM

COc1ccc(Sc2c(C)nn(-c3ccccc3)c2O)cc1 [Compound 1e, 4-(4-Methoxyphenyl)sulfanyl-5-methyl-2-phenyl-pyrazol-3-ol]
Fold increase in potency against Mtb CoaB relative to 1a (Mtb CoaB): 4 fold
IC50 (Mtb CoaB; [12]): 2.8 µM
MIC (Mtb H37RvMA [1]; [13]): > 125 µM
IC50 (HepG2 cells): > 50 µM

NNC(=O)c1ccncc1 [isoniazid, reference compound]
Effect of ATc-mediated coaBC silencing on susceptibility of the coaBC hypomorph (hypersensitization) (coaBC Tet-OFF hypomorph): did not render the coaBC hypomorph more susceptible
